Assay results published in US8309552B2, “Immunomodulating heterocyclic compounds” (Medigene AG, priority 2003, dated 2012).

These compounds were tested against T1, CD80-CD28 interaction (Homo sapiens, UniProt P33681) (assay: Homogenous Time Resolved Fluorescence (HTRF) assay, cell free). Conditions: cell-free HTRF, compound concentration series 100 μM-1.7 nM, 4 hours at room temperature; read-out: Activity (EC50 in the HTRF assay).
T1 sequence (P33681 35-242 limits assumed): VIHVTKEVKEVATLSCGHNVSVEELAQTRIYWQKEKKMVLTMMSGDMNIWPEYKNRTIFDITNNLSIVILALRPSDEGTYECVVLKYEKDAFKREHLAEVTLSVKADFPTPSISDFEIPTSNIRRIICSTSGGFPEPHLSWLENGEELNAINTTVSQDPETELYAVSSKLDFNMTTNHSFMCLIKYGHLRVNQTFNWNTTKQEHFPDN
Type: binding
Description: Homogenous Time Resolved Fluorescence Assay
The examples described above were tested in a cell free Homogenous Time Resolved Fluorescence (HTRF) assay to determine their activity as inhibitors of the CD80-CD28 interaction.
In the assay, europium and allophycocyanin (APC) are associated with CD28 and CD80 indirectly (through antibody linkers) to form a complex, which brings the europium and APC into close proximity to generate a signal. The complex comprises the following six proteins: fluorescent label 1, linker antibody 1, CD28 fusion protein, CD80 fusion protein, linker antibody 2, and fluorescent label 2. The table below describes these reagents in greater detail.
On formation of the complex, europium and APC are brought into proximity and a signal is generated.
Non-specific interaction was measured by substituting a mouse Fab fragment (C215) for the CD80 mouse Fab fragment fusion protein (1.9 μg/ml). The assay was carried out in black 384 well plates in a final volume of 30 μl. Assay buffer: 50 mM Tris-HCl, 150 mM NaCl pH7.8, containing 0.1% BSA (w/v) added just prior to use.
Compounds were added to the above reagents in a concentration series ranging between 100 μM-1.7 nM. The reaction was incubated for 4 hours at room temperature. Dual measurements were made using a Wallac Victor 1420 Multilabel Counter. First measurement: excitation 340 nm, emission 665 nm, delay 50 μs, window time 200 μs. second measurement: excitation 340 nm, emission 615 nm, delay 50 μs, window time 200 μs. Counts were automatically corrected for fluorescence crossover, quenching and background. The EC50 activities of compounds tested are recorded as: EC50:*=>10 μM,**=1-10 μM,***=<1 μM.

Compound | EC50
O=C(NCCOc1ccccc1)c1ccc(-n2[nH]c3c(nnc4ccccc43)c2=O)cc1 [Example 63] | 1000 to 10000 nM
O=C(NCc1ccc(OC(F)(F)F)cc1)c1ccc(-n2[nH]c3c(nnc4ccccc43)c2=O)cc1 [Example 64] | 1000 to 10000 nM
O=C(NCCNc1cccc2ccccc12)c1ccc(-n2[nH]c3c(nnc4ccccc43)c2=O)cc1 [Example 65] | 1000 to 10000 nM
CCOC(=O)C(C)NC(=O)c1ccc(-n2[nH]c3c(nnc4ccccc43)c2=O)cc1 (centres unmarked) [Example 66] | 1000 to 10000 nM
CCCCOCCCNC(=O)c1ccc(-n2[nH]c3c(nnc4ccccc43)c2=O)cc1 [Example 67] | < 1000 nM
CCN1CCCC1CNC(=O)c1ccc(-n2[nH]c3c(nnc4ccccc43)c2=O)cc1 (centres unmarked) [Example 69] | < 1000 nM
CC[C@@H](C)NC(=O)c1ccc(-n2[nH]c3c(nnc4ccccc43)c2=O)cc1 [Example 70] | < 1000 nM
CC[C@H](C)NC(=O)c1ccc(-n2[nH]c3c(nnc4ccccc43)c2=O)cc1 [Example 71] | < 1000 nM
CCC(CC)NC(=O)c1ccc(-n2[nH]c3c(nnc4ccccc43)c2=O)cc1 [Example 72] | 1000 to 10000 nM
O=C(NCCCCc1ccccc1)c1ccc(-n2[nH]c3c(nnc4ccccc43)c2=O)cc1 [Example 73] | 1000 to 10000 nM
CCOC(=O)CCC(NC(=O)c1ccc(-n2[nH]c3c(nnc4ccccc43)c2=O)cc1)C(=O)OCC (centres unmarked) [Example 74] | 1000 to 10000 nM
CC(NC(=O)c1ccc(-n2[nH]c3c(nnc4ccccc43)c2=O)cc1)C1CCCCC1 (centres unmarked) [Example 75] | 1000 to 10000 nM
O=C(NCCc1ccccn1)c1ccc(-n2[nH]c3c(nnc4ccccc43)c2=O)cc1 [Example 76] | 1000 to 10000 nM
CCSCCNC(=O)c1ccc(-n2[nH]c3c(nnc4ccccc43)c2=O)cc1 [Example 77] | < 1000 nM
O=C(NC1CC1)c1ccc(-n2[nH]c3c(nnc4ccccc43)c2=O)cc1 [Example 78] | 1000 to 10000 nM
O=C(NCCCN1CCCC1)c1ccc(-n2[nH]c3c(nnc4ccccc43)c2=O)cc1 [Example 79] | < 1000 nM
O=C(NC1CCCN(Cc2ccccc2)C1)c1ccc(-n2[nH]c3c(nnc4ccccc43)c2=O)cc1 (centres unmarked) [Example 80] | < 1000 nM
CCN(CC)CCCC(C)NC(=O)c1ccc(-n2[nH]c3c(nnc4ccccc43)c2=O)cc1 (centres unmarked) [Example 81] | < 1000 nM
CC(C)CCNC(=O)c1ccc(-n2[nH]c3c(nnc4ccccc43)c2=O)cc1 [Example 82] | 1000 to 10000 nM
O=C(NC1CCCC1)c1ccc(-n2[nH]c3c(nnc4ccccc43)c2=O)cc1 [Example 83] | 1000 to 10000 nM
CCCNC(=O)c1ccc(-n2[nH]c3c(nnc4ccccc43)c2=O)cc1 [Example 84] | 1000 to 10000 nM
CC(C)(C)CCNC(=O)c1ccc(-n2[nH]c3c(nnc4ccccc43)c2=O)cc1 [Example 85] | 1000 to 10000 nM
O=C(NC1CCN(Cc2ccccc2)CC1)c1ccc(-n2[nH]c3c(nnc4ccccc43)c2=O)cc1 [Example 86] | < 1000 nM

Compound | EC50
O=C(NCC1CCCCCC1)c1ccc(-n2[nH]c3c(nnc4ccccc43)c2=O)cc1 [Example 87] | > 10000 nM
CC(NC(=O)c1ccc(-n2[nH]c3c(nnc4ccccc43)c2=O)cc1)C(C)(C)C (centres unmarked) [Example 88] | 1000 to 10000 nM
CC(C)C(C)NC(=O)c1ccc(-n2[nH]c3c(nnc4ccccc43)c2=O)cc1 (centres unmarked) [Example 89] | < 1000 nM
O=C(NC1CCCC1OCc1ccccc1)c1ccc(-n2[nH]c3c(nnc4ccccc43)c2=O)cc1 (centres unmarked) [Example 90] | 1000 to 10000 nM
CC(C)(C)OC(=O)NCCCCNC(=O)c1ccc(-n2[nH]c3c(nnc4ccccc43)c2=O)cc1 [Example 91] | < 1000 nM
CCCCCCCC(C)NC(=O)c1ccc(-n2[nH]c3c(nnc4ccccc43)c2=O)cc1 (centres unmarked) [Example 92] | > 10000 nM
COC(=O)C(NC(=O)c1ccc(-n2[nH]c3c(nnc4ccccc43)c2=O)cc1)C(C)C (centres unmarked) [Example 93] | 1000 to 10000 nM
O=C(NC1CCN(Cc2ccccc2)C1)c1ccc(-n2[nH]c3c(nnc4ccccc43)c2=O)cc1 (centres unmarked) [Example 94] | < 1000 nM
O=C(NCCc1cccnc1)c1ccc(-n2[nH]c3c(nnc4ccccc43)c2=O)cc1 [Example 95] | < 1000 nM
CC(C)CCC(C)NC(=O)c1ccc(-n2[nH]c3c(nnc4ccccc43)c2=O)cc1 (centres unmarked) [Example 96] | 1000 to 10000 nM
CN(CCNC(=O)c1ccc(-n2[nH]c3c(nnc4ccccc43)c2=O)cc1)C(=O)OC(C)(C)C [Example 97] | 1000 to 10000 nM
O=C(Nc1ccc(N2CCCCC2)cc1)c1ccc(-n2[nH]c3c(nnc4ccccc43)c2=O)cc1 [Example 98] | 1000 to 10000 nM
CC(CCCC(C)(C)O)NC(=O)c1ccc(-n2[nH]c3c(nnc4ccccc43)c2=O)cc1 (centres unmarked) [Example 99] | 1000 to 10000 nM
CC(C)(C)OC(=O)N1CCN(CCNC(=O)c2ccc(-n3[nH]c4c(nnc5ccccc54)c3=O)cc2)CC1 [Example 101] | < 1000 nM
O=C(NCCN1CCNCC1)c1ccc(-n2[nH]c3c(nnc4ccccc43)c2=O)cc1 [Example 102] | 1000 to 10000 nM
CC1(C)CC(NC(=O)c2ccc(-n3[nH]c4c(nnc5ccccc54)c3=O)cc2)CC(C)(C)N1 [Example 103] | < 1000 nM
CCOC(=O)N1CCC(NC(=O)c2ccc(-n3[nH]c4c(nnc5ccccc54)c3=O)cc2)CC1 [Example 104] | 1000 to 10000 nM
CC(CCc1ccccc1)NC(=O)c1ccc(-n2[nH]c3c(nnc4ccccc43)c2=O)cc1 (centres unmarked) [Example 105] | > 10000 nM
COC(CNC(=O)c1ccc(-n2[nH]c3c(nnc4ccccc43)c2=O)cc1)OC [Example 106] | 1000 to 10000 nM
CCC(C)CNC(=O)c1ccc(-n2[nH]c3c(nnc4ccccc43)c2=O)cc1 (centres unmarked) [Example 107] | 1000 to 10000 nM
CC(C)NCCNC(=O)c1ccc(-n2[nH]c3c(nnc4ccccc43)c2=O)cc1 [Example 108] | < 1000 nM
O=C(NCCNCCO)c1ccc(-n2[nH]c3c(nnc4ccccc43)c2=O)cc1 [Example 109] | < 1000 nM
CC(C)NCCCNC(=O)c1ccc(-n2[nH]c3c(nnc4ccccc43)c2=O)cc1 [Example 110] | < 1000 nM

Compound | EC50
O=C(NCCCO)c1ccc(-n2[nH]c3c(nnc4ccccc43)c2=O)cc1 [Example 111] | 1000 to 10000 nM
O=C(NCCCCCO)c1ccc(-n2[nH]c3c(nnc4ccccc43)c2=O)cc1 [Example 112] | < 1000 nM
CCCCCCNC(=O)c1ccc(-n2[nH]c3c(nnc4ccccc43)c2=O)cc1 [Example 113] | 1000 to 10000 nM
NS(=O)(=O)c1ccc(CCNC(=O)c2ccc(-n3[nH]c4c(nnc5ccccc54)c3=O)cc2)cc1 [Example 114] | 1000 to 10000 nM
COC(=O)CNC(=O)c1ccc(-n2[nH]c3c(nnc4ccccc43)c2=O)cc1 [Example 115] | 1000 to 10000 nM
CCOC(=O)CCNC(=O)c1ccc(-n2[nH]c3c(nnc4ccccc43)c2=O)cc1 [Example 116] | > 10000 nM
CC(C)(C)OC(=O)NCCCCCCNC(=O)c1ccc(-n2[nH]c3c(nnc4ccccc43)c2=O)cc1 [Example 117] | 1000 to 10000 nM
CCOC(=O)C(C)NC(=O)c1ccc(-n2[nH]c3c(nnc4ccccc43)c2=O)cc1 (centres unmarked) [Example 118] | 1000 to 10000 nM
COCC(C)NC(=O)c1ccc(-n2[nH]c3c(nnc4ccccc43)c2=O)cc1 (centres unmarked) [Example 119] | 1000 to 10000 nM
CC(NC(=O)c1ccc(-n2[nH]c3c(nnc4ccccc43)c2=O)cc1)C1CCCCC1 (centres unmarked) [Example 120] | 1000 to 10000 nM
CC1C(NC(=O)c2ccc(-n3[nH]c4c(nnc5ccccc54)c3=O)cc2)CC2CC1C2(C)C (centres unmarked) [Example 121] | 1000 to 10000 nM
CC1C(NC(=O)c2ccc(-n3[nH]c4c(nnc5ccccc54)c3=O)cc2)CC2CC1C2(C)C (centres unmarked) [Example 122] | > 10000 nM
O=C(Nc1ccc(-n2[nH]c3c(nnc4ccccc43)c2=O)cc1)NC1CCN(Cc2ccccc2)CC1 [Example 123] | 1000 to 10000 nM
CC(C)CC(C)NC(=O)Nc1ccc(-n2[nH]c3c(nnc4ccccc43)c2=O)cc1 (centres unmarked) [Example 124] | > 10000 nM
O=C(NCCN1CCCCC1)Nc1ccc(-n2[nH]c3c(nnc4ccccc43)c2=O)cc1 [Example 125] | 1000 to 10000 nM
O=C(NCc1ccc(F)cc1)Nc1ccc(-n2[nH]c3c(nnc4ccccc43)c2=O)cc1 [Example 126] | > 10000 nM
O=C(Nc1ccc(-n2[nH]c3c(nnc4ccccc43)c2=O)cc1)NC1CCCCC1 [Example 127] | > 10000 nM
CCOCCCNC(=O)Nc1ccc(-n2[nH]c3c(nnc4ccccc43)c2=O)cc1 [Example 128] | 1000 to 10000 nM
CN1CCN(CCCNC(=O)Nc2ccc(-n3[nH]c4c(nnc5ccccc54)c3=O)cc2)CC1 [Example 129] | < 1000 nM
CN(C)CCNC(=O)Nc1ccc(-n2[nH]c3c(nnc4ccccc43)c2=O)cc1 [Example 130] | < 1000 nM
C=CCNC(=O)Nc1ccc(-n2[nH]c3c(nnc4ccccc43)c2=O)cc1 [Example 131] | < 1000 nM
O=C(NCCN1CCOCC1)Nc1ccc(-n2[nH]c3c(nnc4ccccc43)c2=O)cc1 [Example 132] | < 1000 nM
